Peptide text beside a SMILES is read from it. * marks the point of attachment. C16 diacid = O=C(O)CCCCCCCCCCCCCCC(=O)*
Target: T1, human GIP receptor (Homo sapiens, UniProt P48546)
T1 construct: host or cells: COS-7, transient transfection (calcium phosphate), cDNA in pCMV-Script
T1 sequence (P48546 22-466): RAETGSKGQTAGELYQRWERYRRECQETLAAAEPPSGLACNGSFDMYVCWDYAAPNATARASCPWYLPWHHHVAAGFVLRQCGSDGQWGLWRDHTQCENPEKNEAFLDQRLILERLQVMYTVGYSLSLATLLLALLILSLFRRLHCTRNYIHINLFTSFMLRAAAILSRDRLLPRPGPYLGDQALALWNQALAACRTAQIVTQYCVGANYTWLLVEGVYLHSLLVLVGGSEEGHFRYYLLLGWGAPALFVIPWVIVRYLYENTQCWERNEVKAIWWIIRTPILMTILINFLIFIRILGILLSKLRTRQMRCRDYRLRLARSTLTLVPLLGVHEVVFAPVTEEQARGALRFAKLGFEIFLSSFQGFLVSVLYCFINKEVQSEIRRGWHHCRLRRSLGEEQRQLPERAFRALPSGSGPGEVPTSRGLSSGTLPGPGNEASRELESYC
Test: cAMP accumulation assay, agonism (ligand alone)
Format: cell-based
Details: COS-7 cells, Table 1; for Emax: COS-7, intrinsic cAMP activity; for EC50: read-out: cAMP agonism nM (EC50)
Protocol: COS-7 cells were cultured at 10% CO2 and 37° C. in Dulbecco's modified Eagle's medium 1885 supplemented with 10% fetal bovine serum, 2 mM glutamine, 180 units/ml penicillin, and 45 µg/ml streptomycin. Transient transfection of the COS-7 cells for cAMP accumulation and competition binding was performed using the calcium phosphate precipitation method with the addition of chloroquine^46-47.
Transient transfected COS-7 cells expressing the human GIP receptor were seeded in white 96-well plates with a density of 3.5*10^4/well. The day after, the cells were washed twice with Hepes buffered saline (HBS) buffer and incubated with HBS and 1 mM 3-isobutyl-1-methylxanthine (IBMX) for 30 min at 37° C. To test for agonistic properties, ligands were added and incubated for 30 min at 37° C. In order to test for antagonistic properties, the cells were preincubated with the antagonists for 10 min prior to the addition of the agonist and subsequent incubated for 20 additional min. The HitHunter™ cAMP XS assay (DiscoveRx) was carried out according to the manufacturer's instructions.
IC50, EC50, and Ki values were determined by nonlinear regression. These were carried out with the GraphPad Prism 6.0 software (GraphPad, San Diego, Calif., USA) and Microsoft Excel™. Ki values were based on the formula for one class of binding sites in homologous competition binding studies and the Cheng Prussoffs formula, respectively (DeBlasi et al., 1989). To determine the HSA binding potential, the fold change in affinity (as determined by IC50) was calculated as IC50 (plus HSA)/IC50 (minus HSA).

SMILES | Emax [%] | EC50 [nM] | cAMP agonism Emax (intrinsic cAMP activity)
CC[C@H](C)[C@H](NC(=O)[C@H](CO)NC(=O)[C@H](Cc1ccc(O)cc1)NC(=O)[C@H](CC(=O)O)NC(=O)[C@H](CO)NC(=O)[C@@H](NC(=O)[C@H](Cc1ccccc1)NC(=O)[C@@H](NC(=O)[C@H](CCCCNC(=O)CCCCCCCCCCCCCCC(=O)O)NC(=O)[C@@H](N)CCC(=O)O)[C@@H](C)O)[C@@H](C)CC)C(=O)N[C@@H](C)C(=O)N[C@@H](CCSC)C(=O)N[C@@H](CC(=O)O)C(=O)N[C@@H](CCCCN)C(=O)N[C@H](C(=O)N[C@@H](Cc1c[nH]cn1)C(=O)N[C@@H](CCC(N)=O)C(=O)N[C@@H](CCC(N)=O)C(=O)N[C@@H](CC(=O)O)C(=O)N[C@@H](Cc1ccccc1)C(=O)N[C@H](C(=O)N[C@@H](CC(N)=O)C(=O)N[C@@H](Cc1c[nH]c2ccccc12)C(=O)N[C@@H](CC(C)C)C(=O)N[C@@H](CC(C)C)C(=O)N[C@@H](C)C(=O)N[C@@H](CCC(N)=O)C(=O)N[C@@H](CCCCN)C(N)=O)C(C)C)[C@@H](C)CC [AT295, [hGIP(3-30)NH2[G4K]-C16diacid/4]] | 78.6 | 2.6 | 
CC[C@H](C)[C@H](NC(=O)[C@H](CO)NC(=O)[C@H](Cc1ccc(O)cc1)NC(=O)[C@H](CC(=O)O)NC(=O)[C@H](CO)NC(=O)[C@@H](NC(=O)[C@H](Cc1ccccc1)NC(=O)[C@@H](NC(=O)CNC(=O)[C@@H](N)CCC(=O)O)[C@@H](C)O)[C@@H](C)CC)C(=O)N[C@@H](C)C(=O)N[C@@H](CCSC)C(=O)N[C@@H](CC(=O)O)C(=O)N[C@@H](CCCCN)C(=O)N[C@H](C(=O)N[C@@H](Cc1c[nH]cn1)C(=O)N[C@@H](CCC(N)=O)C(=O)N[C@@H](CCC(N)=O)C(=O)N[C@@H](CC(=O)O)C(=O)N[C@@H](CCCCNC(=O)CCCCCCCCCCCCCCC(=O)O)C(=O)N[C@H](C(=O)N[C@@H](CC(N)=O)C(=O)N[C@@H](Cc1c[nH]c2ccccc12)C(=O)N[C@@H](CC(C)C)C(=O)N[C@@H](CC(C)C)C(=O)N[C@@H](C)C(=O)N[C@@H](CCC(N)=O)C(=O)N[C@@H](CCCCN)C(N)=O)C(C)C)[C@@H](C)CC [AT311, [hGIP(3-30)NH2[F22K]-C16diacid/22]] (H-EGTFISDYSIAMDKIHQQDK(C16 diacid)VNWLLAQK-NH2; N-terminus assumed) | 17.5 |  | 
CC[C@H](C)[C@H](NC(=O)[C@H](CO)NC(=O)[C@H](Cc1ccc(O)cc1)NC(=O)[C@H](CC(=O)O)NC(=O)[C@H](CO)NC(=O)[C@@H](NC(=O)[C@H](Cc1ccccc1)NC(=O)[C@@H](NC(=O)CNC(=O)[C@@H](N)CCC(=O)O)[C@@H](C)O)[C@@H](C)CC)C(=O)N[C@@H](C)C(=O)N[C@@H](CCSC)C(=O)N[C@@H](CC(=O)O)C(=O)N[C@@H](CCCCN)C(=O)N[C@H](C(=O)N[C@@H](Cc1c[nH]cn1)C(=O)N[C@@H](CCC(N)=O)C(=O)N[C@@H](CCCCNC(=O)CCCCCCCCCCCCCCC(=O)O)C(=O)N[C@@H](CC(=O)O)C(=O)N[C@@H](Cc1ccccc1)C(=O)N[C@H](C(=O)N[C@@H](CC(N)=O)C(=O)N[C@@H](Cc1c[nH]c2ccccc12)C(=O)N[C@@H](CC(C)C)C(=O)N[C@@H](CC(C)C)C(=O)N[C@@H](C)C(=O)N[C@@H](CCC(N)=O)C(=O)N[C@@H](CCCCN)C(N)=O)C(C)C)[C@@H](C)CC [AT309, [hGIP(3-30)NH2[Q20K]-C16diacid/20]] (H-EGTFISDYSIAMDKIHQK(C16 diacid)DFVNWLLAQK-NH2; N-terminus assumed) |  |  | no ag.
CC[C@H](C)[C@H](NC(=O)[C@H](CO)NC(=O)[C@H](Cc1ccc(O)cc1)NC(=O)[C@H](CC(=O)O)NC(=O)[C@H](CO)NC(=O)[C@@H](NC(=O)[C@H](Cc1ccccc1)NC(=O)[C@@H](NC(=O)CNC(=O)[C@@H](N)CCC(=O)O)[C@@H](C)O)[C@@H](C)CC)C(=O)N[C@@H](C)C(=O)N[C@@H](CCSC)C(=O)N[C@@H](CC(=O)O)C(=O)N[C@@H](CCCCN)C(=O)N[C@H](C(=O)N[C@@H](Cc1c[nH]cn1)C(=O)N[C@@H](CCC(N)=O)C(=O)N[C@@H](CCC(N)=O)C(=O)N[C@@H](CC(=O)O)C(=O)N[C@@H](Cc1ccccc1)C(=O)N[C@H](C(=O)N[C@@H](CC(N)=O)C(=O)N[C@@H](Cc1c[nH]c2ccccc12)C(=O)N[C@@H](CC(C)C)C(=O)N[C@@H](CC(C)C)C(=O)N[C@@H](CCCCNC(=O)CCCCCCCCCCCCCCC(=O)O)C(=O)N[C@@H](CCC(N)=O)C(=O)N[C@@H](CCCCN)C(N)=O)C(C)C)[C@@H](C)CC [AT317, [hGIP(3-30)NH2[A28K]-C16diacid/28]] (H-EGTFISDYSIAMDKIHQQDFVNWLLK(C16 diacid)QK-NH2; N-terminus assumed) | 21.8 | 62 | 
CC[C@H](C)[C@H](NC(=O)[C@H](CO)NC(=O)[C@H](Cc1ccc(O)cc1)NC(=O)[C@H](CC(=O)O)NC(=O)[C@H](CO)NC(=O)[C@@H](NC(=O)[C@H](Cc1ccccc1)NC(=O)[C@@H](NC(=O)CNC(=O)[C@@H](N)CCC(=O)O)[C@@H](C)O)[C@@H](C)CC)C(=O)N[C@@H](C)C(=O)N[C@@H](CCSC)C(=O)N[C@@H](CC(=O)O)C(=O)N[C@@H](CCCCN)C(=O)N[C@H](C(=O)N[C@@H](Cc1c[nH]cn1)C(=O)N[C@@H](CCC(N)=O)C(=O)N[C@@H](CCC(N)=O)C(=O)N[C@@H](CC(=O)O)C(=O)N[C@@H](Cc1ccccc1)C(=O)N[C@H](C(=O)N[C@@H](CC(N)=O)C(=O)N[C@@H](Cc1c[nH]c2ccccc12)C(=O)N[C@@H](CCCCNC(=O)CCCCCCCCCCCCCCC(=O)O)C(=O)N[C@@H](CC(C)C)C(=O)N[C@@H](C)C(=O)N[C@@H](CCC(N)=O)C(=O)N[C@@H](CCCCN)C(N)=O)C(C)C)[C@@H](C)CC [AT315, [hGIP(3-30)NH2[L26K]-C16diacid/26]] (H-EGTFISDYSIAMDKIHQQDFVNWK(C16 diacid)LAQK-NH2; N-terminus assumed) | 5.9 | 183 | 
CCCCCCCCCCCCCCCCCC(=O)NCCCC[C@H](NC(=O)[C@H](CCC(N)=O)NC(=O)[C@H](C)NC(=O)[C@H](CC(C)C)NC(=O)[C@H](CC(C)C)NC(=O)[C@H](Cc1c[nH]c2ccccc12)NC(=O)[C@H](CC(N)=O)NC(=O)[C@@H](NC(=O)[C@H](Cc1ccccc1)NC(=O)[C@H](CC(=O)O)NC(=O)[C@H](CCC(N)=O)NC(=O)[C@H](CCC(N)=O)NC(=O)[C@H](Cc1c[nH]cn1)NC(=O)[C@@H](NC(=O)[C@H](CCCCN)NC(=O)[C@H](CC(=O)O)NC(=O)[C@H](CCSC)NC(=O)[C@H](C)NC(=O)[C@@H](NC(=O)[C@H](CO)NC(=O)[C@H](Cc1ccc(O)cc1)NC(=O)[C@H](CC(=O)O)NC(=O)[C@H](CO)NC(=O)[C@@H](NC(=O)[C@H](Cc1ccccc1)NC(=O)[C@@H](NC(=O)CNC(=O)[C@@H](N)CCC(=O)O)[C@@H](C)O)[C@@H](C)CC)[C@@H](C)CC)[C@@H](C)CC)C(C)C)C(N)=O [AT115, [hGIP(3-30)NH2—C18/30]] |  | 134 | 
